Test results published in ChEMBL document CHEMBL3045212, “Synthesis of some imidazolyl-substituted 2-benzylidene indanone derivatives as potent aromatase inhibitors for breast cancer therapy” (Med Chem Res, 2011).
pIC50: −log10 of the molar value.

Tests used:
[1] = biological target: T1, Aromatase (Homo sapiens, UniProt P11511); assay: Inhibition of Homo sapiens (human) aromatase assessed as 3H2O formation using [1beta,2beta-3H]testosterone as substrate at 36 uM by liquid scintillation counting analysis
T1 sequence (P11511 whole entry): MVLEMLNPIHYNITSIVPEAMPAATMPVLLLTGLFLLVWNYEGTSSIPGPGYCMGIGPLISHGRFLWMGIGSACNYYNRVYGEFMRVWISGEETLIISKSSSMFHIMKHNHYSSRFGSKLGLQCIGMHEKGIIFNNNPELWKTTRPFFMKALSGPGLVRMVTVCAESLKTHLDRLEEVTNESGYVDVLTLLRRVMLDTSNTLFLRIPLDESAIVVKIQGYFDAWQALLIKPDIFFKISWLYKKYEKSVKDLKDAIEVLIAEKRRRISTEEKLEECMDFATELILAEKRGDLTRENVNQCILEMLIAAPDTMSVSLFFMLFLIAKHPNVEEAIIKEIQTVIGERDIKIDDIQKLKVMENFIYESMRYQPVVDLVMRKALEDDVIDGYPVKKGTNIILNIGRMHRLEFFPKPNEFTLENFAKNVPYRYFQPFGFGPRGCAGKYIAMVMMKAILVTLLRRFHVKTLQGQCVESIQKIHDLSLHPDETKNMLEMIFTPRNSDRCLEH

[2] = biological target: T1, Aromatase; assay: Inhibition of Homo sapiens (human) aromatase assessed as 3H2O formation using [1beta,2beta-3H]testosterone as substrate by liquid scintillation counting analysis
[3] = biological target: T1, Aromatase; assay: Ratio of aminoglutethimide IC50 to compound IC50 for Homo sapiens (human) aromatase

Row | inhibition at 36 µM [1] [%] | pIC50 [2] | SMILES | Ratio IC50 [3] | further results
1 | 8 |  | O=C1/C(=C/c2ccccc2OCCCCl)Cc2ccccc21 |  | 
2 | 13 |  | O=C1/C(=C/c2cccc(OCCCCl)c2)Cc2ccccc21 |  | 
3 |  | 6.15 | O=C1/C(=C/c2cccc(OCCCn3ccnc3)c2)Cc2ccccc21 | 42.5 | 
4 | 8 |  | COc1ccc(/C=C2\Cc3ccccc3C2=O)cc1OCCCCl |  | 

The next lines start with the molecule.

Row | SMILES | inhibition at 36 µM [1] [%] | pIC50 [2] | Ratio IC50 [3] | further results
5 | COc1cc(/C=C2\Cc3ccccc3C2=O)ccc1OCCN(C)C |  |  |  | inhibition (INH) ([1]; 36 µM): Not Active
6 | COc1cc(/C=C2\Cc3ccccc3C2=O)ccc1OCCCn1ccnc1 |  |  | 54.1 | 
7 | COc1cc(/C=C2\Cc3ccccc3C2=O)ccc1OCCCCl | 8.5 |  |  | 
8 | O=C1/C(=C/c2ccccc2OCCCn2ccnc2)Cc2ccccc21 |  | 5.96 | 26.6 | 
9 | O=C1/C(=C/c2c[nH]c3ccccc23)Cc2ccccc21 | 6 |  |  | 
10 | COc1ccc(/C=C2\Cc3ccccc3C2=O)cc1OCCCn1ccnc1 |  | 5.87 | 22.5 | 
